The results in this text go back to US12565488B2, “Inhibitors of influenza virus replication” (COCRYSTAL PHARMA, INC., priority 2018, dated 2026).

Each structure is given as a SMILES string.

For one assay, the system named is Influenza type A (strain A/PR/8/34, ATCC VR-95). The assay can be described thus: Influenza antiviral assay: inhibition of virus-induced cytopathic effects (CPE) in MDCK cells, XTT dye reduction. In kind it is cell-based. The conditions noted are these: Influenza A (H1N1) replication in MDCK cells, CPE reduction by XTT at 4 days post-infection; read-out: Influenza H1N1 affinity, EC50. In general terms: Damage to the host cells serves as the signal in cytopathic effect assays.
As usually defined, the EC50 is the concentration at which the effect is half-maximal. For `O=C(NCC1c2ccccc2COc2ccccc21)c1c(O)c(=O)ccn1CC1c2ccccc2COc2ccccc21` (stereo not shown) [Compound 107], the EC50 was greater than 100 µM.

The same assay, now with this note: Influenza A virus, H1N1 / PR/8, MDCK, 96 h, Influenza A (H1N1) replication in MDCK cells, CPE reduction by XTT at 4 days post-infection; read-out: Influenza H1N1 affinity, EC50.
On to `O=C(O)c1cn(CC2c3ccccc3COc3ccccc32)c(C(=O)O)c(O)c1=O` (stereo not shown) [Compound 73], for which the concentration for a half-maximal effect (EC50) is greater than 100 µM.
On the same count and under the same terms, to `O=C(O)c1c(O)c(=O)ccn1NC1c2ccccc2CSc2ccccc21` (stereo not shown) [Compound 59] belongs 10 to 100 µM; to `O=C(Nc1ccccc1)c1c(O)c(=O)ccn1CC1c2ccccc2COc2ccccc21` (stereo not shown) [Compound 49], greater than 100 µM; to `CNC(=O)c1c(O)c(=O)ccn1CC(c1ccccc1)c1ccccc1` [Compound 38], greater than 100 µM.
Same read-out and setting: to `CNC(=O)c1c(O)c(=O)ccn1CC1c2ccccc2COc2ccccc21` (stereo not shown) [Compound 52] belongs greater than 100 µM; to `COC(=O)c1c(O)c(=O)ccn1NC1CCCN(Cc2ccc(OC)cc2)c2ccccc21` (stereo not shown) [Compound 9], greater than 100 µM; to `O=C(O)c1c(O)c(=O)ccn1NC1c2ccccc2SCc2c1ccc(Cl)c2Cl` (stereo not shown) [Compound 94], 0.1 to 1 µM.
Same read-out and setting: to `O=c1ccn(NC2c3ccccc3SCc3c2ccc(F)c3F)cc1O` (stereo not shown) [Compound 43, 1-((7,8-difluoro-6,11-dihydrodibenzo[b,e]thiepin-11-yl)amino)-3-hydroxypyridin-4(1H)-one] belongs greater than 100 µM; to `O=C(Nc1ccc(C(F)(F)F)cc1)c1c(O)c(=O)ccn1NC1c2ccccc2COc2ccccc21` (stereo not shown) [Compound 35], greater than 100 µM; to `CNC(=O)c1c(O)c(=O)ccn1NC1c2ccccc2OCc2c(F)cccc21` (stereo not shown) [Compound 74], greater than 100 µM.
Consider `O=C(O)c1c(O)c(=O)ccn1NC(c1ccccc1)c1cccc2ccccc12` (stereo not shown) [Compound 112], for which the EC50 lay within 10 to 100 µM.
Turning to `O=C(O)c1c(O)c(=O)ccn1CC1c2ccccc2SCc2c1ccc(F)c2F` (stereo not shown) [Compound 118], the half-maximal effective concentration (EC50) is greater than 100 µM.
Still for that read-out and setting: to `O=C(NCc1cccc2ccccc12)c1c(O)c(=O)ccn1NC1c2ccccc2COc2ccccc21` (stereo not shown) [Compound 24] belongs greater than 100 µM; to `CNC(=O)c1c(O)c(=O)ccn1N(C)C1c2ccccc2COc2ccccc21` (stereo not shown) [Compound 25], greater than 100 µM; to `CN(C1c2ccccc2COc2ccccc21)n1ccc(=O)c(O)c1C(=O)NCc1ccccc1` (stereo not shown) [Compound 18], greater than 100 µM.
Same read-out and setting: to `O=C(NCc1cccc(O)c1)c1c(O)c(=O)ccn1NC1c2ccccc2COc2ccccc21` (stereo not shown) [Compound 29] belongs greater than 100 µM; to `O=C(NCCOCCO)c1c(O)c(=O)ccn1NC1CCCN(Cc2ccccc2)c2ccccc21` (stereo not shown) [Compound 17], greater than 100 µM.
The same measure, in the same setting: to `O=C(O)c1c(O)c(=O)ccn1NC1c2ccccc2CSc2cc(Cl)c(Cl)cc21` (stereo not shown) [Compound 77] belongs 10 to 100 µM; to `CNC(=O)c1c(O)c(=O)ccn1NC1CCOCc2ccccc21` (stereo not shown) [Compound 56], greater than 100 µM.
For `CNC(=O)c1c(O)c(=O)ccn1NC1c2ccccc2CSc2cc(F)c(F)cc21` (stereo not shown) [Compound 78], the EC50 lay in the range of 1 to 10 µM.
On the same count and under the same terms, to `CNC(=O)c1c(O)c(=O)ccn1NC1CCCN(C)c2ccccc21` (stereo not shown) [Compound 46] belongs greater than 100 µM; to `O=C(O)c1c(O)c(=O)ccn1NC1c2ccc(F)c(F)c2COc2c1ccc(F)c2F` (stereo not shown) [Compound 80], 1 to 10 µM; to `O=C(O)c1c(O)c(=O)ccn1NC1c2ccc(C(F)(F)F)cc2COc2ccccc21` (stereo not shown) [Compound 86], greater than 100 µM.
On the same count and under the same terms, then `O=C(O)c1c(O)c(=O)ccn1NC1c2ccccc2COc2ccccc21` (stereo not shown) [Compound 2, 1-((6,11-dihydrodibenzo[b,e]oxepin-11-yl)amino)-3-hydroxy-4-oxo-1,4-dihydropyridine-2-carboxylic acid], with 10 to 100 µM; and `CNC(=O)c1c(O)c(=O)ccn1NC1CCN(C)c2ccccc21` (stereo not shown) [Compound 45], with greater than 100 µM.
For the compound `O=C(Nc1cccc(C(F)(F)F)c1)c1c(O)c(=O)ccn1NC1c2ccccc2COc2ccccc21` (stereo not shown) [Compound 13, 1-((6,11-dihydrodibenzo[b,e]oxepin-11-yl)amino)-3-hydroxy-4-oxo-N-(3-(trifluoromethyl)phenyl)-1,4-dihydropyridine-2-carboxamide], the EC50 is 1 to 10 µM.
Same read-out and setting: to `O=C(Nc1cccc2ccccc12)c1c(O)c(=O)ccn1NC1c2ccccc2COc2ccccc21` (stereo not shown) [Compound 21] belongs greater than 100 µM; to `CNC(=O)c1c(O)c(=O)ccn1N(Cc1ccccc1)C1c2ccccc2COc2ccccc21` (stereo not shown) [Compound 72], greater than 100 µM.
Same read-out and setting: to `CNC(=O)c1c(O)c(=O)ccn1NC1c2ccccc2CSc2cc(Cl)c(Cl)cc21` (stereo not shown) [Compound 79, 1-((2,3-dichloro-6,11-dihydrodibenzo[b,e]thiepin-11-yl)amino)-3-hydroxy-N-methyl-4-oxo-1,4-dihydropyridine-2-carboxamide] belongs greater than 100 µM.
Same read-out and setting: then `O=C(O)c1c(O)c(=O)ccn1NC1c2ccccc2CSc2cc(F)c(F)cc21` (stereo not shown) [Compound 88], with 10 to 100 µM; and `O=C(NCc1cccc(C(F)(F)F)c1)c1c(O)c(=O)ccn1NC1c2ccccc2COc2ccccc21` (stereo not shown) [Compound 37], with greater than 100 µM; and `O=C(NCc1ccc2ccccc2c1)c1c(O)c(=O)ccn1NC1c2ccccc2COc2ccccc21` (stereo not shown) [Compound 22], with 1 to 10 µM.
Take `O=c1ccn(NC2c3ccccc3COc3ccccc32)cc1O` (stereo not shown) [Compound 4]: the EC50 was greater than 100 µM.
Take `COc1ccc2c(c1)C(Nn1ccc(=O)c(O)c1C(=O)O)c1ccccc1CS2` (stereo not shown) [Compound 115]: the 50% effective concentration (EC50) was greater than 100 µM.
On to `CN(C1c2ccccc2COc2ccccc21)n1ccc(=O)c(O)c1C(=O)Nc1ccccc1` (stereo not shown) [Compound 34], for which the EC50 was greater than 100 µM.
Still for that read-out and setting: to `COC(=O)c1c(O)c(=O)ccn1N(Cc1ccccc1)C1c2ccccc2COc2ccccc21` (stereo not shown) [Compound 26] belongs greater than 100 µM; to `O=C(Nc1ccc(-c2ccccc2)cc1)c1c(O)c(=O)ccn1NC1c2ccccc2COc2ccccc21` (stereo not shown) [Compound 36], greater than 100 µM.
`O=C(O)c1c(O)c(=O)ccn1NC1c2cc(Cl)c(Cl)cc2CSc2ccccc21` (stereo not shown) [Compound 117]: the EC50 fell in the range of 10 to 100 µM.

Still in this assay, the particulars now being: Influenza A virus, H1N1 / PR/8, MDCK, 96 h, read-out: Influenza H1N1 affinity, EC50.
Take `CNC(=O)c1cn(CC2c3ccccc3COc3ccccc32)c(C(=O)NC)c(O)c1=O` (stereo not shown) [Compound 65, 1-((6,11-dihydrodibenzo[b,e]oxepin-11-yl)methyl)-3-hydroxy-N2,N5-dimethyl-4-oxo-1,4-dihydropyridine-2,5-dicarboxamide]: the EC50 is greater than 100 µM.
